Test results from ChEMBL document CHEMBL4184100, “Discovery of 2-arylquinazoline derivatives as a new class of ASK1 inhibitors” (Bioorg Med Chem Lett, 2018).
≈ marks a conversion by molar mass, not a printed value. Calls of active or inactive are those of the source. The rule behind the calls is not given here.

Assays:
[1] = target: CYP2C9 (Homo sapiens, UniProt P11712); assay: Inhibition of CYP2C9 (unknown origin) at 10 uM relative to control; format: ADME
[2] = Stability in human liver microsomes; format: ADME, microsome; settings: read-out: Stability
[3] = Stability in rat liver microsomes; format: ADME, microsome; settings: read-out: Stability
[4] = target: T1, Mitogen-activated protein kinase kinase kinase 5 (Homo sapiens, UniProt Q99683); assay: Inhibition of stress-activated full length recombinant human N-terminal GST-tagged ASK1 expressed in baculovirus expression system using MKK6 as substrate pretreated for 10 mins followed by substrate addition by Alphascreen assay
T1 sequence (Q99683 whole entry): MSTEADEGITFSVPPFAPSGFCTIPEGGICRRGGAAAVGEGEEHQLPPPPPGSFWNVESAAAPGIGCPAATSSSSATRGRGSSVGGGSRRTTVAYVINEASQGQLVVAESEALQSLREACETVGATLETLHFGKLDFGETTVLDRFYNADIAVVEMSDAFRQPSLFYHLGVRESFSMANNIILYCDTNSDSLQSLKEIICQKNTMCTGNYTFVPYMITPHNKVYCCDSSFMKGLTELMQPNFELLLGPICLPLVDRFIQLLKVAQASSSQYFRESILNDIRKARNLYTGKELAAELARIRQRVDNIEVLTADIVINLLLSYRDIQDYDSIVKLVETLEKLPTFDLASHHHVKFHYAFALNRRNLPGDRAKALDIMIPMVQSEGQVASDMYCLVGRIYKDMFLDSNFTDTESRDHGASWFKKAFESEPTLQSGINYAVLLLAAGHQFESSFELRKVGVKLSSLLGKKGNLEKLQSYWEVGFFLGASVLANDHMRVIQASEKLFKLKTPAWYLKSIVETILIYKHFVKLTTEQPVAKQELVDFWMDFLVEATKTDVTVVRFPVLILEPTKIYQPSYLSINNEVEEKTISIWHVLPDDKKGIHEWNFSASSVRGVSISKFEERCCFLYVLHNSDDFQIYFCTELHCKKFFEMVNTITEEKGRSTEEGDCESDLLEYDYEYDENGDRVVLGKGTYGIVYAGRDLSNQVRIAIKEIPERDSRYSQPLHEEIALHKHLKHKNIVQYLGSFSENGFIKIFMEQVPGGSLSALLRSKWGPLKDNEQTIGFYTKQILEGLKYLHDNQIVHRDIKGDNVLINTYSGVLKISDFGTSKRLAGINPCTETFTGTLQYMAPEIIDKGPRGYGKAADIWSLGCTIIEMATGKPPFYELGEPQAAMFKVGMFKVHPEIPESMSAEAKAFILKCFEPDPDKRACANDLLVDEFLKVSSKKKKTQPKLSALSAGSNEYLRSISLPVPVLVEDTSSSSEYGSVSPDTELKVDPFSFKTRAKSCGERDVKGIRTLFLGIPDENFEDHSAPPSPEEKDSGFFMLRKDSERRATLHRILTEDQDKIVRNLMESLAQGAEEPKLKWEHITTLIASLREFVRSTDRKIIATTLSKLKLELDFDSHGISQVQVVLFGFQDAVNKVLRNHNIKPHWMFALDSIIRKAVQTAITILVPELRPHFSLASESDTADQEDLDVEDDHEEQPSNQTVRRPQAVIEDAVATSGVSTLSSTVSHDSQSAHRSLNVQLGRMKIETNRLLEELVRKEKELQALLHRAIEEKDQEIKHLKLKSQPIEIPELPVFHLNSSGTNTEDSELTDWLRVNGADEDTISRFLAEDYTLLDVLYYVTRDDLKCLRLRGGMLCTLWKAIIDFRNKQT

[5] = target: CYP3A4 (Homo sapiens, UniProt P08684); assay: Inhibition of CYP3A4 (unknown origin) at 10 uM relative to control; format: ADME
CYP3A4, sequence (P08684 whole entry): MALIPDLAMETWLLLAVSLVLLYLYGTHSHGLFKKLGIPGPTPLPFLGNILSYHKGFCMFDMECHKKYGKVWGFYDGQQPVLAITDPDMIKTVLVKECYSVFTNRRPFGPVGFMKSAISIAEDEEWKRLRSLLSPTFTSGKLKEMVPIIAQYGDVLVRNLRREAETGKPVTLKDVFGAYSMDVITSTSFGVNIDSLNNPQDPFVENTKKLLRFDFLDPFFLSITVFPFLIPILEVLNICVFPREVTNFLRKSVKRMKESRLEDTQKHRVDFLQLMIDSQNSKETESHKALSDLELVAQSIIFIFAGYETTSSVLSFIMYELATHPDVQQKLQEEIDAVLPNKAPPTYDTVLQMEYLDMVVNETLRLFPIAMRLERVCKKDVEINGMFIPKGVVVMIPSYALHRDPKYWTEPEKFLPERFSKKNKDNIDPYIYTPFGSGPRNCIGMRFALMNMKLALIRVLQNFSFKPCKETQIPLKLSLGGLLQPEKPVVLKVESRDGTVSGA

[6] = Solubility of the compound in phosphate buffered saline at pH 7.4; format: physicochemical; settings: buffer
[7] = target: CYP2D6 (Homo sapiens, UniProt P10635); assay: Inhibition of CYP2D6 (unknown origin) at 10 uM relative to control; format: ADME
CYP2D6, sequence (P10635 whole entry): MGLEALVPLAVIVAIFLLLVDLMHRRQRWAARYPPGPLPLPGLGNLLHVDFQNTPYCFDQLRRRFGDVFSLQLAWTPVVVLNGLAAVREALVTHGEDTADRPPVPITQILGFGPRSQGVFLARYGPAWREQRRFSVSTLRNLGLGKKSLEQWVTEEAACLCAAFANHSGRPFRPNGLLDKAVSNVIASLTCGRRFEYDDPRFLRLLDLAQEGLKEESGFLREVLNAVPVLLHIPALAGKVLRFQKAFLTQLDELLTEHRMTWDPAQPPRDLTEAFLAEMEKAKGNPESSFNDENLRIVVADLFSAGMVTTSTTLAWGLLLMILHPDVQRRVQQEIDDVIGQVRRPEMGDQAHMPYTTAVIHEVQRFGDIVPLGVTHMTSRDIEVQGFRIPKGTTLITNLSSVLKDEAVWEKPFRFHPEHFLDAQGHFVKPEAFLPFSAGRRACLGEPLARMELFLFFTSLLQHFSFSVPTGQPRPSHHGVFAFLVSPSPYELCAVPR

[8] = Stability in mouse liver microsomes; format: ADME, microsome; settings: read-out: Stability
[9] = target: T2, Mitogen-activated protein kinase kinase kinase 5 (Rattus norvegicus) (UniProt D3ZZH6); assay: Inhibition of […] in rat INS-1E cells assessed as reduction in TNFalpha-induced […] phosphorylation at ser207 residues up to 10 uM by immunoblot analysis; format: cell-based
T2 sequence (whole entry): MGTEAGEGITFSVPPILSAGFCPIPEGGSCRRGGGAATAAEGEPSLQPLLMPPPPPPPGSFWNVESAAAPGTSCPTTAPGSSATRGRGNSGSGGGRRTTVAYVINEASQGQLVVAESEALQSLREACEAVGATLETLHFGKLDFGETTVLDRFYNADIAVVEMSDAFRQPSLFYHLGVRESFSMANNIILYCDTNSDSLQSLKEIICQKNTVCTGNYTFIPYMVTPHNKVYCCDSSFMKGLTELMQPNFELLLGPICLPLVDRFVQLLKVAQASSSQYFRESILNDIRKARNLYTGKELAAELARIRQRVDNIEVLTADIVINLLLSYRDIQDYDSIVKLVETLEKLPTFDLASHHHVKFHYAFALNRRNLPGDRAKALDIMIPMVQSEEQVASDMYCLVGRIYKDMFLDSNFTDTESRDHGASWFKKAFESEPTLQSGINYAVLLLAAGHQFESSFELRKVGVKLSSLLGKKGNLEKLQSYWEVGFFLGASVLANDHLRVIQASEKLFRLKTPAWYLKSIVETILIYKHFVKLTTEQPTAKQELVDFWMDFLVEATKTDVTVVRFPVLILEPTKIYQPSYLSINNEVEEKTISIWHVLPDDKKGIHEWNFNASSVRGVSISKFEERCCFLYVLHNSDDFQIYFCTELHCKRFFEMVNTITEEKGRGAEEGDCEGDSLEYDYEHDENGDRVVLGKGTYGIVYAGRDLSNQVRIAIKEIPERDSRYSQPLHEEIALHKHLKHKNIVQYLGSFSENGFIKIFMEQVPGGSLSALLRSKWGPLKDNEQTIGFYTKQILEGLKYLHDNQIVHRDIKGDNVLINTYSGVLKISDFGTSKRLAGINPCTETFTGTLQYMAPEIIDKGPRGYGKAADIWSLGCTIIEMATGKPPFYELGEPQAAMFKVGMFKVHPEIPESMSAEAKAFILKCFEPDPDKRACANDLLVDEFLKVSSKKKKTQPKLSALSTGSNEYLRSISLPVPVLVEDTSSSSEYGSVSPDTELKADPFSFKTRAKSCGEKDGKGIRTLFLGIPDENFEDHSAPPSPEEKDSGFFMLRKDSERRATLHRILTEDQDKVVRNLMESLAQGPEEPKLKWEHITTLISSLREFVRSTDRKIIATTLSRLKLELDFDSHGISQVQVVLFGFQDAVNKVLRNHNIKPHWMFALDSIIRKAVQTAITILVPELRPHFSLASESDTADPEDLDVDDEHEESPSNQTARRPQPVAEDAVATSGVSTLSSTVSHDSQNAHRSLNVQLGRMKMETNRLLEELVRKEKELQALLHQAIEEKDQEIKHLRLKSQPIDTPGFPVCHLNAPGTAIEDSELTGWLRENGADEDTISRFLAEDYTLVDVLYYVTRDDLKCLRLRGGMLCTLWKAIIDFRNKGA

[10] = target: T3, CYP1A2 (Homo sapiens, UniProt P05177); assay: Inhibition of CYP1A2 (unknown origin) at 10 uM relative to control; format: ADME
T3 sequence (P05177 whole entry): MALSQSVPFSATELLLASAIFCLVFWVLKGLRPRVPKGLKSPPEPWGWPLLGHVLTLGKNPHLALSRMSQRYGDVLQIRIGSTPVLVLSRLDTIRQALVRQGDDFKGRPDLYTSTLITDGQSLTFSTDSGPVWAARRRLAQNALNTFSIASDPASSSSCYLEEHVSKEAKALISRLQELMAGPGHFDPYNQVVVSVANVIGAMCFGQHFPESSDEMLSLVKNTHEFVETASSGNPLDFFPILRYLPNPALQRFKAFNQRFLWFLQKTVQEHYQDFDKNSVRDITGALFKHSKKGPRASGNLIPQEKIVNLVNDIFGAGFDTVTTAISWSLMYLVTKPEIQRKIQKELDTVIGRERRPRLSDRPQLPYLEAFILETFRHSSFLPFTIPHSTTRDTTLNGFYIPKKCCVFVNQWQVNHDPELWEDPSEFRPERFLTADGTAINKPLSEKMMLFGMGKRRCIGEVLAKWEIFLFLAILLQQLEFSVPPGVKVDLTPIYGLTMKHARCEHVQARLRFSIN

CYP2C9, sequence (P11712 whole entry): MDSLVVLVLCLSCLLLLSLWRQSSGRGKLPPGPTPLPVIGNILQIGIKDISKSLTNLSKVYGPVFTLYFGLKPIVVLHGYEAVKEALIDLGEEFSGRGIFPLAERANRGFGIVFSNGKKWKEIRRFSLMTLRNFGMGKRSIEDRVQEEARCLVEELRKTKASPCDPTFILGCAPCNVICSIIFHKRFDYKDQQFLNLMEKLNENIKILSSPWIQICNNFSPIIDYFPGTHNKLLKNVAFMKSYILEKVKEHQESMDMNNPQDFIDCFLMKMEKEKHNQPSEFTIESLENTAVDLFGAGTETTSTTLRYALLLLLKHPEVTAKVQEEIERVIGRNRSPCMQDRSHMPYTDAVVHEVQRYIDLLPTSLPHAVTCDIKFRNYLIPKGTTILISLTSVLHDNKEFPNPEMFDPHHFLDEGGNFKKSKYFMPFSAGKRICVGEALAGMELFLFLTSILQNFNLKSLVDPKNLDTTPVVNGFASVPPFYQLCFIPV

inhibition at 10 µM [1]: 20%
half-life [2]: 6 min
half-life [3]: 4 min
IC50 [4]: 900 nM
inhibition at 10 µM [5]: -13%
solubility [6]: 100 µM (≈ 27.8 µg/mL)
inhibition at 10 µM [7]: 13%
half-life [8]: 2 min
inhibition [9]: Active
inhibition at 10 µM [10]: 94%
SMILES: CC(=O)Nc1cccc(Nc2ncc3ccccc3n2)c1
